For eleven compounds, GI50 and TGI results are on record in PubChem BioAssay (NCI).

“And” between values parts separate entries of the source, which are not always exact repeats. Equal entries are not always repeated.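 Assay format: 96-well plates, 48-hour exposure. The concentration for 50% growth inhibition is given as GI50. TGI denotes the concentration required for complete inhibition of growth.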

Among the test systems are 786-0 renal; DU-145 prostate; IGROV1 ovarian; MCF7 breast; SF-268 CNS; SF-539 CNS; SK-MEL-5 melanoma; SK-OV-3 ovarian; SN12C renal; SNB-19 CNS.
Common to all, as to assay: DTP human tumour cell line panel, 48 h

One may read the GI50 as the concentration at which growth is held to half of that of the control. By TGI is commonly meant the concentration at which net growth stops. Low values mean more potent growth arrest, high ones less potent growth arrest. Turning to `COC(=O)Nc1nc2ccc(Oc3ccc(NC(=O)Nc4cccc(C(=O)O)c4)cc3)cc2[nH]1`, the GI50 with 786-0 renal was 10.5 µM; in the test with DU-145 prostate, 8.07 µM; with IGROV1 ovarian, 12.7 µM; with MCF7 breast, 4.73 µM; in the test on SF-268 CNS, 11.3 µM; in the test on SF-539 CNS, 4.95 µM. For the same compound, the GI50 in the test on SK-MEL-5 melanoma is 3.24 µM; with SK-OV-3 ovarian, 5.53 µM; with SN12C renal it was 11.9 µM; in the test on SNB-19 CNS, 9.36 µM. For the same compound, the TGI in the test with 786-0 renal was over 25 µM; in the test on DU-145 prostate, over 25 µM; in the test with IGROV1 ovarian, over 25 µM; in the test on MCF7 breast, 24.3 µM; in the test with SF-268 CNS, over 25 µM; in the test on SF-539 CNS, over 20.9 µM. Further, the TGI is over 21 µM with SK-MEL-5 melanoma, 16.3 µM with SK-OV-3 ovarian, over 25 µM in the test with SN12C renal and over 25 µM with SNB-19 CNS.

Turning to `CCN(CC)CCCC(C)Nc1cnc(C(=O)Nc2ccc(Cl)c3cccnc23)cn1` (configuration not stated), the GI50 was 1.4 µM in the test with 786-0 renal; 4.12 µM in the test with DU-145 prostate; 1.62 µM with IGROV1 ovarian; 1.68 µM in the test on MCF7 breast; 3.23 µM in the test on SF-268 CNS; 1.71 µM in the test with SF-539 CNS. Besides, the GI50 is 1.8 µM with SK-MEL-5 melanoma, 12.9 µM with SK-OV-3 ovarian, 2.19 µM in the test on SN12C renal and 3.37 µM in the test with SNB-19 CNS. Besides, the total growth inhibition concentration (TGI) with 786-0 renal was 2.87 µM; in the test with DU-145 prostate, 15.8 µM; with IGROV1 ovarian, 4.11 µM; in the test with MCF7 breast, 4.39 µM; in the test with SF-268 CNS it was 15 µM; with SF-539 CNS it was 3.12 µM. The TGI with SK-MEL-5 melanoma turned out to be 3.31 µM; in the test with SK-OV-3 ovarian, 26 µM; with SN12C renal, 5.53 µM; in the test with SNB-19 CNS, 13.9 µM.

Consider `CC[C@@H](C(=O)[C@@H](C)[C@@H](O)[C@H](C)[C@@H]1O[C@@H]([C@@H](CC)C(=O)O)CC[C@@H]1C)C1O[C@]2(C=CC(=O)[C@]3(CC[C@@](C)([C@H]4CC[C@](O)(CC)[C@H](C)O4)O3)O2)[C@H](C)C[C@@H]1C` (some centres not stated), for which the GI50 in the test with 786-0 renal was 0.987 µM; in the test on DU-145 prostate, 1.43 µM; in the test on IGROV1 ovarian, 2.44 µM; in the test on MCF7 breast, 0.0669 µM; in the test with SF-268 CNS, 2.12 µM; in the test with SF-539 CNS, 0.334 µM. Moreover, the 50% growth inhibitory concentration (GI50) was 0.0658 µM in the test on SK-MEL-5 melanoma, 3.7 µM in the test on SK-OV-3 ovarian, 0.179 µM in the test on SN12C renal and 0.4 µM in the test on SNB-19 CNS. The TGI came to 14.5 µM with 786-0 renal; 18 µM in the test with DU-145 prostate; 20.4 µM in the test on IGROV1 ovarian; 12.8 µM in the test with MCF7 breast; 15.7 µM in the test on SF-268 CNS; 10.4 µM in the test with SF-539 CNS. Moreover, the total growth inhibition concentration (TGI) with SK-MEL-5 melanoma turned out to be 0.232 µM; in the test with SK-OV-3 ovarian it was 16 µM; in the test on SN12C renal, 15 µM; in the test with SNB-19 CNS, 6.96 µM.

For the compound `Cn1ccnc1C(=O)/C=C/c1ccc(C(=O)Nc2ccc(Cl)cc2)cc1`, the GI50 was 0.761 µM in the test with 786-0 renal; 1.32 µM in the test with DU-145 prostate; 0.855 µM with IGROV1 ovarian; 0.899 µM in the test with MCF7 breast; 1.37 µM in the test on SF-268 CNS; 0.626 µM in the test on SF-539 CNS. Moreover, the GI50 is 2.35 µM in the test with SK-MEL-5 melanoma, 1.87 µM with SK-OV-3 ovarian, 1.01 µM in the test with SN12C renal and 0.987 µM in the test on SNB-19 CNS. Further, the total growth inhibition concentration (TGI) in the test on 786-0 renal was 1.82 µM; in the test with DU-145 prostate, over 33.3 µM; in the test with IGROV1 ovarian, 2.62 µM; in the test with MCF7 breast, 24.1 µM; in the test on SF-268 CNS it was over 33.3 µM; in the test on SF-539 CNS, 1.42 µM. Further, the TGI was 7.04 µM with SK-MEL-5 melanoma, over 33.3 µM in the test with SK-OV-3 ovarian, 5.07 µM with SN12C renal and over 33.3 µM in the test with SNB-19 CNS.

Take `COc1ccc2c(c1)c(-c1ccc(-c3cn(S(=O)(=O)c4ccccc4)c4ccc(OC)cc34)s1)cn2S(=O)(=O)c1ccccc1`: the GI50 with 786-0 renal, in the test with DU-145 prostate, in the test with IGROV1 ovarian, with MCF7 breast, with SF-268 CNS and in the test with SF-539 CNS was over 100 µM throughout. Besides, the GI50 with SK-MEL-5 melanoma, in the test with SK-OV-3 ovarian, in the test with SN12C renal and in the test on SNB-19 CNS was over 100 µM throughout. Besides, the total growth inhibition concentration (TGI) in the test with 786-0 renal, with DU-145 prostate, in the test on IGROV1 ovarian, in the test with MCF7 breast, with SF-268 CNS and in the test on SF-539 CNS was over 100 µM throughout. For the same compound, the concentration for total growth inhibition (TGI) with SK-MEL-5 melanoma, in the test on SK-OV-3 ovarian, with SN12C renal and in the test with SNB-19 CNS was over 100 µM in each case.

For `CCCCCCCCCCCCCC(=O)O[C@H]1CC[C@H](NC(=O)[C@H](OC)[C@H](O)[C@@H](O)[C@H](O)/C=C/C(C)C)C(=O)NC1`, the total growth inhibition concentration (TGI) in the test with 786-0 renal is 0.928 µM; with DU-145 prostate, 34.6 µM and > 100 µM; in the test with IGROV1 ovarian, 8.51 µM and 2.71 µM; with MCF7 breast, 8.64 µM and 22.6 µM; with SF-268 CNS, 18.8 µM and 22.5 µM; in the test with SF-539 CNS, 22 µM and 17.6 µM. Also, the TGI with SK-MEL-5 melanoma was 1.37 µM and 0.25 µM; in the test on SK-OV-3 ovarian, 51.2 µM and > 100 µM; in the test on SN12C renal, 10.8 µM and 18.6 µM; with SNB-19 CNS it was 51.2 µM and 25.9 µM. The GI50 in the test with DU-145 prostate and in the test on MCF7 breast was 0.00512 µM throughout.

Regarding `CC(C)(C)NC(C1=CC(C)(C)c2ccccc2C1=O)c1ccccc1` (configuration not stated), the GI50 with 786-0 renal is 1.75 µM; in the test with DU-145 prostate, 1.55 µM; with IGROV1 ovarian, 1.52 µM; in the test with MCF7 breast, 1.32 µM; with SF-268 CNS, 1.38 µM; with SF-539 CNS, 1.66 µM. For the same compound, the GI50 is 1.52 µM in the test with SK-MEL-5 melanoma, 3.04 µM in the test on SK-OV-3 ovarian, 1.61 µM in the test with SN12C renal and 3.36 µM with SNB-19 CNS. Further, the total growth inhibition concentration (TGI) in the test with 786-0 renal came out at 3.13 µM; in the test on DU-145 prostate, 3.24 µM; in the test on IGROV1 ovarian, 4.87 µM; in the test on MCF7 breast it was 2.59 µM; in the test with SF-268 CNS it was 2.74 µM; in the test on SF-539 CNS, 3.02 µM. Besides, the TGI in the test on SK-MEL-5 melanoma stood at 2.84 µM; in the test with SK-OV-3 ovarian it was 12.1 µM; in the test on SN12C renal, 3.57 µM; in the test with SNB-19 CNS, 14.2 µM.

Turning to `CC1=C[C@H]2c3c(c(O)c(O)c4oc5c(C)cccc5c(=O)c34)[C@H](c3cc(O)c(O)c4oc5c(C)cccc5c(=O)c34)[C@H]2C(C)(C)C1`, the GI50 was 2.85 µM in the test on 786-0 renal; 3.13 µM with DU-145 prostate; 1.39 µM in the test on IGROV1 ovarian; 2 µM with MCF7 breast; 1.74 µM in the test with SF-268 CNS; 1.67 µM in the test on SF-539 CNS. Besides, the GI50 was 1.43 µM with SK-MEL-5 melanoma, 2.46 µM with SK-OV-3 ovarian, 1.69 µM in the test with SN12C renal and 2.27 µM in the test with SNB-19 CNS. Also, the TGI was 9.29 µM in the test with 786-0 renal; 14.9 µM in the test with DU-145 prostate; 5.69 µM with IGROV1 ovarian; 6.3 µM in the test on MCF7 breast; 11.7 µM in the test with SF-268 CNS; 3.65 µM with SF-539 CNS. Also, the concentration for total growth inhibition (TGI) in the test on SK-MEL-5 melanoma turned out to be 2.78 µM; in the test on SK-OV-3 ovarian it was 9.96 µM; in the test with SN12C renal, 6.7 µM; in the test with SNB-19 CNS it was 11.2 µM.

Regarding `COc1cc(O)c2c(O)c3c(c4c2c1[C@]1(C4)C(C)=CCCC1(C)C)[C@H](O)[C@@]1(O)CC(=O)C(C(N)=O)=C(O)[C@@]1(O)C3=O`, the total growth inhibition concentration (TGI) turned out to be 1.62 µM in the test on 786-0 renal; 2.43 µM in the test on DU-145 prostate; 1.94 µM with IGROV1 ovarian; 1.23 µM in the test on MCF7 breast; 1.81 µM in the test on SF-268 CNS; 0.965 µM in the test on SF-539 CNS. Further, the TGI in the test with SK-MEL-5 melanoma is 0.399 µM; in the test with SK-OV-3 ovarian, 1.43 µM; in the test with SN12C renal, 1.25 µM; in the test on SNB-19 CNS it was 1.94 µM.

Consider `COc1cc2c3c(n(CCCCOC(=O)C(F)(F)F)c(=O)c2cc1OC)-c1cc2c(cc1C3=O)OCO2`, for which the GI50 is 0.982 µM with 786-0 renal; over 80 µM in the test with DU-145 prostate; over 26.3 µM in the test with IGROV1 ovarian; over 48.8 µM in the test on MCF7 breast; over 100 µM in the test with SF-268 CNS; over 100 µM with SF-539 CNS. The GI50 was over 100 µM in the test on SK-MEL-5 melanoma, over 100 µM in the test with SK-OV-3 ovarian, over 93.9 µM with SN12C renal and over 100 µM in the test with SNB-19 CNS. Further, the total growth inhibition concentration (TGI) in the test with 786-0 renal was 7.65 µM; in the test on DU-145 prostate, over 100 µM; in the test with IGROV1 ovarian, over 100 µM; in the test on MCF7 breast, over 100 µM; with SF-268 CNS, over 100 µM; with SF-539 CNS, over 100 µM. Also, the TGI with SK-MEL-5 melanoma, in the test on SK-OV-3 ovarian, in the test with SN12C renal and with SNB-19 CNS was over 100 µM throughout.

For the compound `COc1cc(-c2nc(Nc3nc4ccccc4[nH]3)nc(N)c2C#N)cc(OC)c1OC`, the GI50 in the test with 786-0 renal was 20.2 µM; in the test with DU-145 prostate, 10.9 µM; in the test on IGROV1 ovarian it was 6.2 µM; in the test with MCF7 breast, 0.503 µM; with SF-268 CNS, over 53.2 µM; with SF-539 CNS it was 10.7 µM. Further, the GI50 in the test on SK-MEL-5 melanoma was 0.414 µM; with SK-OV-3 ovarian, 4.4 µM; with SN12C renal, 29.1 µM; in the test on SNB-19 CNS, 21 µM. Moreover, the TGI in the test on 786-0 renal was over 100 µM; in the test with DU-145 prostate, 35.6 µM; in the test on IGROV1 ovarian it was over 54 µM; with MCF7 breast it was over 33.8 µM; in the test on SF-268 CNS, over 100 µM; with SF-539 CNS, 36.2 µM. The TGI in the test on SK-MEL-5 melanoma was 16.2 µM; in the test on SK-OV-3 ovarian, 56.8 µM; with SN12C renal it was over 100 µM; in the test on SNB-19 CNS, over 100 µM.
